Earlier results on 1 compound are cited in patent publication US9326976B2, “Carbamate derivatives” (CHIESI FARMACEUTICI S.P.A., priority 2014, dated 2016).

The data set relates to COPD patients.
[1] abbreviates: patients with severe disease, frequent exacerbations and mucus hypersecretion.

Regarding `O=C(Nc1c(Cl)cncc1Cl)c1ccc(OC(F)F)c(OCC2CC2)c1` [roflumilast], the “reduction of the numbers of neutrophils in sputum” value (COPD patients, oral, given over 4 weeks) is on record as 36%. In addition, under setting [1], the “improvement of FEV 1” value is given as “approximately 50 mL” and the reduction of exacerbation result is given as “about 15%”.
